Data as given in ChEMBL document CHEMBL1201862, “PubChem BioAssay data set” (2004).
The source made the active and inactive calls.

What was measured:
[1] = microbe, parasite or virus in culture; type: functional; settings: Mycobacterium tuberculosis
[2] = target: T1, Mannose-6-phosphate isomerase (Homo sapiens, UniProt P34949); experiment: human PMI inhibitors, high substrate, primary screen, biochemical, fluorescence intensity, high mannose 6-phosphate (AID 1220)
T1 sequence (P34949 whole entry): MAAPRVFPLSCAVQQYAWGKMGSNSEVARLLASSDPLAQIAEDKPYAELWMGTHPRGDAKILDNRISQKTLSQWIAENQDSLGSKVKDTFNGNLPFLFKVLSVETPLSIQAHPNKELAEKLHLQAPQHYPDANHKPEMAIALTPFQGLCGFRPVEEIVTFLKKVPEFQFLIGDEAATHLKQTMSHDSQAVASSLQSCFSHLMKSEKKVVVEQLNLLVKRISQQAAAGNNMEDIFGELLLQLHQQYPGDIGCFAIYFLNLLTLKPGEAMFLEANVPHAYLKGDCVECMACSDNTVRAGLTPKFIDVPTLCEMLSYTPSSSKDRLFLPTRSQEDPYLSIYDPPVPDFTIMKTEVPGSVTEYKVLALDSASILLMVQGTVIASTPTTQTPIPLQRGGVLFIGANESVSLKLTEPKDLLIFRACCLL

cells = type: functional
[3] = target: FAD-linked sulfhydryl oxidase ALR (Homo sapiens, UniProt P55789); experiment: inhibitors of human ALR sulfhydryl oxidase, dose response, biochemical, H2O2 detection, luminescence, cherry-pick (AID 493248)
Sequence of FAD-linked sulfhydryl oxidase ALR (P55789 whole entry): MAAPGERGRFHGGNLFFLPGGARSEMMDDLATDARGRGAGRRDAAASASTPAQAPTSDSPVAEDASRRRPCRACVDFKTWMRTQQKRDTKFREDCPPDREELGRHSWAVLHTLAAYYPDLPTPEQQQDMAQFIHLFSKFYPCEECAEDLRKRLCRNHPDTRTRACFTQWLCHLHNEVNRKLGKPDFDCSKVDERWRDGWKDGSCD

[4] = HepG2 cell cytotoxicity, dose response, cytotoxicity control, ATP luminescence, cherry-pick, activator set 2 (AID 1053143); type: functional, cell-based
Kallikrein-7 = Kallikrein-7 (Homo sapiens, UniProt P49862); experiment: Fluorescence Intensity-based biochemical primary high throughput dose response assay to identify activators of kallikrein-7 (K7) zymogen.
Sequence of Kallikrein-7 (P49862 whole entry): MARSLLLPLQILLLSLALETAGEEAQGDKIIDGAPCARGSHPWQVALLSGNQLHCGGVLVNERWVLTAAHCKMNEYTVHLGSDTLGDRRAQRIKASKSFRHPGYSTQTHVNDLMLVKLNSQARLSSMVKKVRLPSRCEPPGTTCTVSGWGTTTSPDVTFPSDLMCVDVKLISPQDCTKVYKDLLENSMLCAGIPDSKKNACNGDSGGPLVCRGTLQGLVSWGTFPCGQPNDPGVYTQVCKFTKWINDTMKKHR

[5] = tested on: Streptococcus sp. 'group A'; experiment: growth inhibition of control SK(-) GAS strain, dose response, counter-screen for streptokinase expression inhibitor project, luminescence, kanamycin, BacTiterGlo, confirmation (AID 1900); type: functional, organism-based
Streptokinase A = target: T2, Streptokinase A (Streptococcus pyogenes serotype M1, UniProt P10520); experiment: S. pyogenes streptokinase expression inhibitors, potency, dose response, plasminogen activation absorbance, OD405 (AID 1914); type: functional, Streptococcus pyogenes M1 GAS;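 also: secreted streptokinase activity via plasminogen activation per viability signal from cell pellet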
T2 sequence (P10520 whole entry): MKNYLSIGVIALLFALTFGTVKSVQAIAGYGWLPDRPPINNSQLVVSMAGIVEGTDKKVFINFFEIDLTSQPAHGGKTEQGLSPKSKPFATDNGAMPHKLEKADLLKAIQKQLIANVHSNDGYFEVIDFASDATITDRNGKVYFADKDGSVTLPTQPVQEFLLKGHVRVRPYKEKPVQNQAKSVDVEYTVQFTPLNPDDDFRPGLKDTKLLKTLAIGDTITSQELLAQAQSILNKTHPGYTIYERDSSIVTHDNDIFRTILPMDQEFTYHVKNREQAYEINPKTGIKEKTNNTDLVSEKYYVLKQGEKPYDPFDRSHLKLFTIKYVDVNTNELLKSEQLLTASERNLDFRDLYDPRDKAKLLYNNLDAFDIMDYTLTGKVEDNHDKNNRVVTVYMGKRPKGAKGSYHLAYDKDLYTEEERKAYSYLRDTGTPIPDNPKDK

[6] = inhibitors of intracellular T. cruzi replication, confirmation, NIH3T3 host cells, beta-gal luminescence (AID 2044); type: functional, cell-based;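 also: intracellular parasites grown in NIH/3T3 mouse fibroblasts as host cells; luminescent beta-galactosidase reporter signal from transgenic T. cruzi replicating inside host cells; inhibitors lower the luminescence signal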
[7] = growth suppression of PTEN-null colon cells, dose response, cell-based, HCT116 PTEN knockout (AID 1047); type: functional;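 also: HCT116 colon tumor cells with PTEN knocked out; cells exposed to compound for 60 hours before readout; potency for loss of cell viability measured by luminescence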
[8] = cytotoxicity toward NIH3T3 fibroblasts, dose response, counter-screen, cell-based, ATP luminescence, mouse fibroblasts (AID 2010); type: functional;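 also: cells exposed to compound for about 90 hours before reading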
[9] = growth suppression of beta-catenin-knockout colon cells, dose response, cell-based, HCT116, human colon tumor (AID 1045); type: functional;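 also: HCT116 colon tumor cells with beta catenin knocked out; cells exposed to compound for 60 hours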
Streptococcus = experiment: Group A Streptococcus viability loss, dose response, counter-screen for streptokinase expression inhibitor project, luminescence, BacTiterGlo (AID 1915); type: functional, organism-based;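 also: potency for reduction of bacterial viability or growth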
[10] = target: T3, Replicative DNA helicase DnaB (Mycobacterium tuberculosis, UniProt P9WMR3); experiment: DnaB intein splicing inhibitors, dose response, biochemical, cell-free fluorescence (AID 449749); type: functional
T3 sequence (P9WMR3 whole entry): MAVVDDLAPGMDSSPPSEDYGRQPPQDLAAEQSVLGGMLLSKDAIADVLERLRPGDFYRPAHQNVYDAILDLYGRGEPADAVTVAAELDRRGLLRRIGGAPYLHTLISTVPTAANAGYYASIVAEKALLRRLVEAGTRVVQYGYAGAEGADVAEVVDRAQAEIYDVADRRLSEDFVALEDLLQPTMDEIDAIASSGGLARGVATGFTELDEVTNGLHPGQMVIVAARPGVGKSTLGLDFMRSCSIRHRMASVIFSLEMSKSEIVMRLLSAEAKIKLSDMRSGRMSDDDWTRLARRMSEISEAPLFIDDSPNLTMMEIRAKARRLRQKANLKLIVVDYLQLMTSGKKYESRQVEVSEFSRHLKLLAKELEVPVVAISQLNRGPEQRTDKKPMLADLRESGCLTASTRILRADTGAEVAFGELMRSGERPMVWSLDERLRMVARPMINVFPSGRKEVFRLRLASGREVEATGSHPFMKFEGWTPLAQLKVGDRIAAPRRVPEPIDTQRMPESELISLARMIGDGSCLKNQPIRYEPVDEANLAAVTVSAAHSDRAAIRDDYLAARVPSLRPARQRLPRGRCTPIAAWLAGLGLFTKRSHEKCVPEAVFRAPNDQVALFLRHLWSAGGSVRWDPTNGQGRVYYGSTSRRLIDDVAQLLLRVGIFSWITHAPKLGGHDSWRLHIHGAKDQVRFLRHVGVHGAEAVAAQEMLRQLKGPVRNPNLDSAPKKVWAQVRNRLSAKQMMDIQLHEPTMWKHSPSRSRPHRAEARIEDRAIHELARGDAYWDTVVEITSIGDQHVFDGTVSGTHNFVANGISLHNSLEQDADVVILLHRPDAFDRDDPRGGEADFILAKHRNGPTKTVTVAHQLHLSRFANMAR

[11] = target: Heat shock protein HSP 90-alpha (Homo sapiens, UniProt P07900); type: functional, organism-based
Vero = Vero cell cytotoxicity, cytotoxicity control for flavivirus capping enzyme inhibitors (AID 588742); type: functional; settings: Chlorocebus sabaeus
Protein RecA = target: T4, Protein RecA (Mycobacterium tuberculosis, UniProt P9WHJ3); experiment: Fluorescence Cell-Free Homogeneous Dose Retest to Identify Inhibitors of RecA-Intein Splicing Activity. [Related pubchem assays (depositor defined):AID2097, AID2223, AID489010, AID492950]; type: functional
T4 sequence (P9WHJ3 whole entry): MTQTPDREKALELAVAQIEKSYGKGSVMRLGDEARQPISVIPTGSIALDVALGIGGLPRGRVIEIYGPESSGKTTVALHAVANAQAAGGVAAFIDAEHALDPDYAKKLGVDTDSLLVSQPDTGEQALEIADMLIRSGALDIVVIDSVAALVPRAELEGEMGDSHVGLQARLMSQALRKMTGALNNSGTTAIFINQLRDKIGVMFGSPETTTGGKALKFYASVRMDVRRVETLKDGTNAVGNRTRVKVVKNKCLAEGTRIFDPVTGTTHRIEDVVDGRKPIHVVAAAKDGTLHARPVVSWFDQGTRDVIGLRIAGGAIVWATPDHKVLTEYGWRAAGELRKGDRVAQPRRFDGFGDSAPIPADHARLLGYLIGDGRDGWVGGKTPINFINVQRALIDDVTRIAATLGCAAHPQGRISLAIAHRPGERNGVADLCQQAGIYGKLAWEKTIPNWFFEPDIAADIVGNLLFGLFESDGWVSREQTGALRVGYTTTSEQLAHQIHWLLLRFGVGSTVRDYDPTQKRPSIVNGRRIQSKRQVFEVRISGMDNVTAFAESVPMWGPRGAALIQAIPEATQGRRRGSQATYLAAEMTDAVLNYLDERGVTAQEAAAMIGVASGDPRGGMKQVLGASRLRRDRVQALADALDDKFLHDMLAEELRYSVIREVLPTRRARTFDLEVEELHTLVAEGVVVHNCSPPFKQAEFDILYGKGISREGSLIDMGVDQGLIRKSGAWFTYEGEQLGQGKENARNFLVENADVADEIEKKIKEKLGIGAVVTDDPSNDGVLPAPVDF

INS1 = experiment: beta cell apoptosis inhibitors, cytokine rescue, dose response, luminescence, retest (AID 449756); type: functional, cell-based; settings: Rattus norvegicus, INS1;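 also: cell death triggered by IL-1 beta plus TNF-alpha plus IFN-gamma mixture; protective hits raise ATP signal compared with cytokine alone wells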
[12] = inhibitors of PGC1a acetylation in cells, dose response, cell-based, cherry-picked samples (AID 720514); type: functional;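 also: potency may reflect raised or lowered acetylation signal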
[13] = HEK293T cytotoxicity, dose response, cytotoxicity control for miR-122 modulator project, cell-based, inhibitor set, cherry-pick, set 2 (AID 720697); type: functional
[14] = P. falciparum 3D7-ScDHODH growth inhibitors, dose response, SYBR Green, dry powder samples (AID 1159570); type: functional, cell-based;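 also: parasite growth measured after 72 hours of compound exposure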
[15] = HepG2 cell cytotoxicity, dose response, cytotoxicity control, plate reader, dry powder samples (AID 1159569); type: functional, cell-based;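 also: inhibitor potency with signal falling toward the positive control level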
[16] = P. falciparum Dd2 growth inhibitors, dose response, SYBR Green, dry powder samples, set 9 (AID 1159568); type: functional, cell-based
[17] = P. falciparum Dd2 growth inhibitors, dose response, SYBR Green, cherry-picked samples (AID 1159567); type: functional, cell-based
[18] = P. falciparum Dd2 growth inhibitors, dose response, SYBR Green, dry powder samples (AID 1159566); type: functional, cell-based;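 also: potency for growth inhibition with lower SYBR green DNA signal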
[19] = P. falciparum ATP4 D1247Y mutant growth inhibitors, dose response, NITD609-resistant line, SYBR Green, dry powder (AID 1159571); type: functional, cell-based;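 also: parasites synchronized at ring stage by sorbitol before testing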

For `Cc1cc(=O)n2cccc(O)c2n1`, the CC50 [1] was > 40 µM (active), the IC50 [2] was 22.9 µM (active) and the IC50 (cells) was 9.19 µM (active).
In the case of `Cc1ccc(Nc2nc(-c3ccc(O)cc3O)cs2)nc1`, the AC50 [3] is reported as 0.288 µM (active) and the AC50 [4] is reported as 26 µM (active).
For `N#Cc1c(N2CCOCC2)nc(N)c2c(N)nc3c(c12)CC(CCl)O3` (stereo not given), the EC50 (Kallikrein-7) was > 69.5 µM (inactive).
With `O=C(c1ccc2c3n(nc2c1)-c1ccc(Cl)cc1CO3)N1CCCCC1` the AC50 [4] was 26 µM (active).
In the case of `Cc1nn(-c2ccccc2)c2c1cc1c(=O)n(C)c(=O)nc-1n2-c1ccccc1F`, the EC50 (Kallikrein-7) is reported as 52.9 µM (inactive).
In the case of `CC(=O)C1=C(c2ccc(Br)cc2)C(=O)c2ccccc2C1=O`, the EC50 [5] is reported as 1 µM (active), the EC50 (Streptokinase A) is reported as 7.12 µM (active) and the EC50 [6] is reported as 2.01 µM (active). The EC50 [7] was 1.98 µM (active), the EC50 [8] was 2.42 µM (active) and the EC50 [9] was 1.81 µM (active). The EC50 (Streptococcus) was 9.4 µM (active), the IC50 [2] was 3.13 µM (active) and the AC50 [10] was 3.05 µM (active). For the same compound, the AC50 [11] was 7.99 µM (active), the CC50 (Vero) was 9.68 µM (active) and the EC50 (Protein RecA) was 1.94 µM (active). For the same compound, the AC50 (INS1) was 1.06 µM (active).
For `CCCCn1c(Cc2ccccc2)nnc1SCC(=O)Nc1cc(C)on1`, the IC50 [2] was > 50 µM (not active).
With `O=C(NC1CCCCCCC1O)c1ccccc1` (stereo not given) the AC50 [12] was 35.4 µM (active).
In the case of `CS(=O)(=O)Nc1ccc(-c2cnc3cccnn23)cc1`, the EC50 (Kallikrein-7) is reported as 24.1 µM (inactive).
For `C[C@H](CO)N1C[C@H](C)[C@H](CN(C)C(=O)C2CCC2)Oc2cc(-c3ccc(C(=O)N(C)C)cc3)ccc2S1(=O)=O`, the AC50 [13] was 9.74 µM (active).
In the case of `O=C1C=CCCN1C(=O)/C=C/c1cccc(Br)c1`, the AC50 [12] is reported as 0.949 µM (active).
For `CC(C)C(=O)Nc1ccc2c(c1)C(=O)N(C)[C@H]1CC[C@H](CC(=O)O)O[C@H]1CO2`, the AC50 [13] was 0.437 µM (active).
For `O=C1C=CCCN1S(=O)(=O)/C=C/c1ccccc1`, the AC50 [12] was 1.19 µM (active).
For `C[C@H](CO)N1C[C@H](C)[C@H](CN(C)C(=O)C2CCCCC2)Oc2ncc(C#Cc3cccc(F)c3)cc2C1=O`, the AC50 [14] was 0.848 µM (active), the AC50 [15] was 49.1 µM (active) and the AC50 [16] was 0.269 µM (active). The AC50 [17] was 1.39 µM (active), the AC50 [18] was 0.408 µM (active) and the AC50 [19] was 0.725 µM (active).
With `O=C(Nc1ccccc1F)N1CCCCN2[C@H](CO)[C@H](c3ccc(/C=C/c4ccccc4)cc3)[C@@H]2C1` the AC50 [16] was 12 µM (active).
